Test [1] concerns the target T1, V-ATPase (purified from enterococci or recombinant E. coli) (Enterococcus hirae, UniProt P43439+P43457).
T1 construct: made in house; host or cells: Enterococcus hirae (native) or recombinant E. coli
Nature of the test: ATPase activity measurement (molybdenum blue method, primary screening). Type of test: biochemical. Here is the method:
The ATPase activity can be measured by a molybdenum blue method for measuring absorbance of the inorganic phosphoric acid generated by hydrolysis of ATP. As the reaction conditions, conditions for measuring the ATPase activity can be adopted. As the buffer solution used in the reaction, Tris-HCl buffer can be used. The reaction time is usually 10 to 60 minutes, but can be appropriately adjusted depending on the air temperature or the like. The reaction of V-ATPase is terminated with the addition of a surfactant such as sodium dodecyl sulfate (SDS), and into which a color-developing liquid (such as ferrous sulfate) is added to give a color, and then the concentration of the inorganic phosphoric acid can be calculated by the measurement of the absorbance at a wavelength of 650 nm.
From the concentration of inorganic phosphoric acid calculated above, the inhibition rate of the V-ATPase reaction can be calculated. That is, a graph is created in which the inhibition rate is plotted on the vertical axis and the concentration of compound is plotted on the horizontal axis, and the concentration (IC50) at which the inhibition rate becomes 50% is determined. As the concentration of compound at which IC50 is obtained becomes lower, a higher V-ATPase inhibitory effect is exerted with a small amount, and accordingly, the compound can be taken as a candidate compound for the inhibitor for V-ATPase activity.
The V-ATPase was prepared by the method disclosed in the following papers. • Paper 1: Takeshi Murata, et. al, “Purification and Reconstitution of Na^+-translocating Vacuolar ATPase from Enterococcus hirae”, J. Biol. Chem. 272, 24885-24890 (1997) • Paper 2: Takeshi Murata, et. al, “Torque Generation of Enterococcus hirae V-ATPase”, J. Biol. Chem. 289, 31212-31223 (2014)
ATPase activity measurement was conducted by a molybdenum blue method that quantifies the inorganic phosphoric acid generated by hydrolysis of ATP with the use of absorbance measurement. The measurement was conducted in a 96-well plate, and 0.05% DDM (n-dodecyl-β-D-maltoside), 10 μg/mL of V-ATPase (purified from enterococci or recombinant E. coli), and 20 μM of a compound were added into a buffer (100 mM Tris-HCl at pH 8.5, 100 mM NaCl, 5 mM MgSO4, 10% glycerol). Into the mixture obtained above, ATP was added so as to be 5 mM, the whole amount was set to 100 μL, the reaction was started while stirring the mixture with a stirrer, and the reaction time was set to 30 minutes. Since the ATPase activity changes largely depending on the reaction temperature, the reaction time was adjusted within the range of 10 to 60 minutes corresponding to the air temperature on the day of the experiment. With the addition of 50 μL of 20% SDS, the V-ATPase was denatured and the reaction was terminated, and into the resultant mixture, 75 μL of color-developing liquid (5% ferrous sulfate, 1.6% ammonium molybdate, and 1 M sulfuric acid) was added to give a color. Immediately, the absorbance at a wavelength of 650 nm was measured by using a plate reader. Four kinds of KH2PO4 aqueous solutions of 0.2 mM, 0.5 mM, 1.0 mM, and 1.5 mM were reacted with MQ (ultrapure water) in the same experiment system, and then the activity of V-ATPase was measured by determining the concentration of generated inorganic phosphoric acid with the use of a created calibration curve. In this regard, a compound that had inhibited 50% or more of the activity of V-ATPase was diluted stepwisely so as to have a concentration of 10 μM, 5 μM, 2 μM, 1 μM, 500 nM, 200 nM, 100 nM, and 50 nM, and the measurement similar to the above was conducted.
From the results of the above measurement of ATPase activity, the inhibition rate was calculated comparing the decrease in the activity by assuming the activity under the condition of no compound addition as 100. A graph was created in which the inhibition rate was plotted on the vertical axis and the concentration of compound was plotted on the horizontal axis (FIG. 2). […]

In test [2] the test system is enterococci (Enterococcus hirae). Nature of the test: Growth experiment of enterococci (secondary screening), OD600 at pH 7.0 and pH 8.5. The test is classed as cell-based. Details: Growth inhibition rate (%): concentration or dose not given beside the values. Conditions: for Specificity: growth inhibition at pH 8.5 versus pH 7.0. Here is the method: In the culture of enterococci (Enterococcus hirae), a culture medium in which the Na^+ concentration had been adjusted by adding a buffer solution using 2% tryptone and 1% yeast extract as the base was used. In a case of adding glucose, glucose prepared in a 50% solution was added so as to be 1% into the culture medium when the culture medium was used. The whole amount 200 μL was cultured using a 96-well plate, and OD600 was measured every hour by using a plate reader. By using culture media at pH 7.0 and pH 8.5, the effect of pH on the growth was observed. In culture of bacteria, the pH often fluctuates largely due to the decomposition of the sugars required for the growth, and it is extremely important to maintain a constant pH in this experiment, and therefore, the pH was maintained constant with the addition of a buffer suitable for each pH. Since the V-ATPase is expressed only under an alkaline condition, the growth inhibition observed with the addition of an inhibitor is largely dependent on the pH.
IC50 and the like of the above 24 kinds of compounds are described in the following table. […] Furthermore, with respect to the symbol “n.a.”, a compound having a growth inhibition rate of 60% or more at pH 7.0 is determined that there was the growth inhibition. In addition, the growth inhibition rate of a compound having no clear inhibition is also recorded for reference.

Where [3] appears, read: IC50 (nM), Table 4, (1,2,4-oxadiazol-3-yl)phenyl derivatives.
Where [4] appears, read: Table 4, (1,2,4-oxadiazol-3-yl)phenyl derivatives.
Where [5] appears, read: Table 2, inhibition of V-ATPase ATPase activity, pH 8.5 buffer, read-out: IC50.
The mark [6] stands for this setting: Table 2, E. hirae growth, pH not stated (media pH 7.0 and pH 8.5).
The mark [7] stands for this setting: IC50 (nM), Table 2, inhibition of V-ATPase ATPase activity, pH 8.5 buffer.
The mark [8] stands for this setting: Table 3, 2-phenyl benzimidazole derivatives.
Where [9] appears, read: high affinity for V-ATPase (IC50), unit inferred.
Setting [10] is: Table 3, 2-phenyl benzimidazole derivatives, read-out: IC50.

Where two headings read alike, the source gives them in different places.

The IC50 is the concentration that gives 50% inhibition.

For the compound `Cc1ccc(C(=O)Nc2ccc(-c3noc(COc4cccc(C)c4C)n3)cc2)s1` [Compound V-234-03], in test [1] (setting [3]), the IC50 was 6 nM. The “Growth inhibition rate (%)” value in test [2] (setting [4]) is listed as 72.0%.
For `CC1(C)CC2(CC(C)(C)c3cc(O)c(O)cc32)c2cc(O)c(O)cc21` [Compound V-124], the IC50 in test [1] (setting [5]) came out at 300 nM. In test [2] (setting [6]), the “Growth inhibition rate (%)” value worked out at 49.2%. Besides, the Specificity result in test [2] (Table 2) is “+ (there was no growth inhibition at pH 7.0 but was the growth inhibition at pH 8.5)”.
In the case of `CN(C)C(=S)N/N=C1\C(=O)C(c2ccccc2)(c2ccccc2)c2ccccc21` [Compound V-150], the IC50 in test [1] (setting [5]) was 500 nM. Besides, the “Growth inhibition rate (%)” value in test [2] (setting [6]) is given as 70.4%. Moreover, the Specificity entry in test [2] (Table 2) was “n.a. (there was the growth inhibition in any case)”.
Taken in the same sequence, the figures for `N=C(N)Nc1nc(-c2ccccc2)c2cc(F)ccc2n1` [Compound V-171] were 2500 nM, 85.6% and “+ (there was no growth inhibition at pH 7.0 but was the growth inhibition at pH 8.5)”.
Turning to `CCCCC#Cc1cncc(C(=O)N/N=C/c2cccs2)c1` [Compound V-99], in test [1] (setting [5]), the half-inhibitory concentration (IC50) stood at 2500 nM. For the same compound, the “Growth inhibition rate (%)” value in test [2] (setting [6]) is given as 6.7%. Also, the Specificity entry in test [2] (Table 2) was “− (there was no growth inhibition in any case)”.
For the compound `CC(C)CN(CC(C)C)c1ccc([N+](=O)[O-])cc1/C=N/Nc1ccccc1` [Compound V-105], the IC50 in test [1] (setting [5]) stood at 1000 nM. Further, in test [2] (setting [6]), the “Growth inhibition rate (%)” value was 90.8%. In addition, in test [2] (Table 2), the Specificity entry is listed as “n.a. (there was the growth inhibition in any case)”.
Regarding `CCCCCOc1ccc(NC(=O)c2cccs2)cc1` [Compound V-103], the IC50 in test [1] (setting [7]) was found to be 100 nM. Further, the “Growth inhibition rate (%)” value in test [2] (setting [6]) came to 45.3%. Also, the Specificity result in test [2] (Table 2) is recorded as “+ (there was no growth inhibition at pH 7.0 but was the growth inhibition at pH 8.5)”.
With `Cc1ccc2[nH]c(-c3ccc(N4CCCC4)cc3)nc2c1` [Compound V-161-01], in test [1] (IC50 (nM), Table 3, 2-phenyl benzimidazole derivatives), the IC50 worked out at 50 nM. The “Growth inhibition rate (%)” value in test [2] (setting [8]) came out at 89.7%. Also, the Specificity result in test [2] (Table 3) is on record as “+ (there was no growth inhibition at pH 7.0 but was the growth inhibition at pH 8.5)”.
`CC1=C(/C=C/C(C)=C/C=C/C(C)=C/C(=O)Nc2ccc(O)cc2)C(C)(C)CCC1` [Compound V-84, (2E,4E,6E,8E)-N-(4-hydroxyphenyl)-3,7-dimethyl-9-(2,6,6-trimethylcyclohexyl-1-en-1-yl)nona-2,4,6,8-tetraeneamide]: the IC50 is 80 nM in test [1] (setting [7]) and at most 400 nM in test [1] (setting [9]). Further, the “non-specific inhibition / non-specific bond” value in test [2] is “non-specific inhibition”. Besides, in test [2] (setting [6]), the “Growth inhibition rate (%)” value was determined as 90.6%. For the same compound, the Specificity result in test [2] (Table 2) is given as “− (there was no growth inhibition in any case)”.
For the compound `CCC(C)C1OC2(CCC1C)CC1CC(CC=C(C)C(OC3CC(OC)C(OC4CC(OC)C(O)C(C)O4)C(C)O3)C(C)C=CC=C3COC4C(O)C(C)=CC(C(=O)O1)C34O)O2` (centres unmarked) [Compound V-85], the half-inhibitory concentration (IC50) in test [1] (setting [7]) is 10000 nM. For the same compound, in test [2] (setting [6]), the “Growth inhibition rate (%)” value worked out at 66.4%. Also, the Specificity result in test [2] (Table 2) is “+ (there was no growth inhibition at pH 7.0 but was the growth inhibition at pH 8.5)”.
In the case of `CCCCCCCCc1ccc(O)c(C=O)c1` [Compound V-91], in test [1] (setting [5]), the IC50 came to 850 nM. In addition, the “Growth inhibition rate (%)” value in test [2] (setting [6]) is on record as 90.9%. Also, in test [2] (Table 2), the Specificity entry is given as “n.a. (there was the growth inhibition in any case)”.
With `O=C(NC(c1ccccc1)c1cc([N+](=O)[O-])c2cccnc2c1O)C1CCCCC1` (centres unmarked) [Compound V-157], the IC50 in test [1] (setting [5]) stood at 2000 nM. For the same compound, the “Growth inhibition rate (%)” value in test [2] (setting [6]) is on record as 84.2%. In test [2] (Table 2), the Specificity result is recorded as “n.a. (there was the growth inhibition in any case)”.
With `COc1ccc(-c2nc3cc(C)ccc3[nH]2)cc1` [Compound V-161-10], the half-maximal inhibitory concentration (IC50) in test [1] (setting [10]) came to 120 nM. Moreover, the “Growth inhibition rate (%)” value in test [2] (setting [8]) is recorded as 86.8%. The Specificity entry in test [2] (Table 3) is recorded as “+ (there was no growth inhibition at pH 7.0 but was the growth inhibition at pH 8.5)”.
As for `O=C1N=C(NC2CCCC2)S/C1=C\c1ccc(OC(F)F)cc1OC(F)F` [Compound V-6, (Z)-5-(2,4-bis(difluoromethoxy)benzylidene)-2-(cyclopentylamino) thiazol-4 (5H)-one], the IC50 in test [1] (setting [7]) was 80 nM; in test [1] (setting [9]), at most 400 nM. Moreover, the “non-specific inhibition / non-specific bond” value in test [2] is given as “no non-specific inhibition”. Besides, the “Growth inhibition rate (%)” value in test [2] (setting [6]) came to 77.9%. In addition, in test [2] (Table 2), the Specificity result was “+ (there was no growth inhibition at pH 7.0 but was the growth inhibition at pH 8.5)”.
In the case of `CCCOc1ccc(/C=N/NC(=N)N)c(OCCC)c1` [Compound V-189], the IC50 in test [1] (setting [5]) was found to be 4500 nM. Moreover, the “Growth inhibition rate (%)” value in test [2] (setting [6]) turned out to be 91.2%. Moreover, in test [2] (Table 2), the Specificity result is recorded as “+ (there was no growth inhibition at pH 7.0 but was the growth inhibition at pH 8.5)”.
As to `Cc1ccc2[nH]c(-c3ccc(I)cc3)nc2c1` [Compound V-161-04], in test [1] (setting [10]), the IC50 was found to be 120 nM. In addition, in test [2] (setting [8]), the “Growth inhibition rate (%)” value stood at 90.3%. Besides, the Specificity result in test [2] (Table 3) was “+ (there was no growth inhibition at pH 7.0 but was the growth inhibition at pH 8.5)”.
Consider `Cc1cccc(OCc2nc(-c3ccc(NC(=O)c4cccs4)cc3)no2)c1C` [Compound V-234-02], for which, in test [1] (setting [3]), the half-maximal inhibitory concentration (IC50) is 40 nM. In addition, in test [2] (setting [4]), the “Growth inhibition rate (%)” value amounted to 74.8%.
For the compound `CCCCC1CCC(C(=O)Oc2ccc(C=O)c(O)c2)CC1` (centres unmarked) [Compound V-149], the IC50 in test [1] (setting [5]) was found to be 4500 nM. Besides, the “Growth inhibition rate (%)” value in test [2] (setting [6]) was determined as 90.5%. For the same compound, the Specificity entry in test [2] (Table 2) was “n.a. (there was the growth inhibition in any case)”.
Turning to `CCc1ccc(-c2nc3cc(C)ccc3[nH]2)cc1` [Compound V-161-02], in test [1] (setting [10]), the IC50 turned out to be 120 nM. In test [2] (setting [8]), the “Growth inhibition rate (%)” value came out at 88.5%. Moreover, in test [2] (Table 3), the Specificity entry is recorded as “+ (there was no growth inhibition at pH 7.0 but was the growth inhibition at pH 8.5)”.
With `CN(C)c1ccc2nc3ccc(N(C)C)cc3[s+]c2c1` [Compound V-27], the IC50 in test [1] (setting [7]) turned out to be 3000 nM. Also, the “Growth inhibition rate (%)” value in test [2] (setting [6]) is 64.0%. Moreover, the Specificity entry in test [2] (Table 2) is “+ (there was no growth inhibition at pH 7.0 but was the growth inhibition at pH 8.5)”.

Source of the values: patent US12599588B2, “Inhibitor for V-ATPase activity, antibacterial agent, medicine, antibacterial method and screening method” (Japan Science and Technology Agency, priority 2019, dated 2026).
